Experimental data taken from patent EP0465913B1, “Diaminotrifluoromethylpyrimidine derivatives, process for their production and phospholipase A2 inhibitor containing them” (ISHIHARA SANGYO KAISHA, LTD., priority 1990, dated 1992).
Where a name gives a salt, the structure may show the parent alone.

How the values were obtained:
[1] = target: T1, Porcine pancreatic phospholipase A2 (Sus scrofa, UniProt P00592); experiment: Phospholipase A2 inhibitory activity, method B (L-α-dipalmitoylphosphatidylcholine substrate); type: biochemical; settings: 37°C for 30 minutes; for inhibition at 1000 ppm: 1,000 ppm, read-out: % inhibition of PLA2 (1,000 ppm)
T1 construct: purchased Boehringer Mannheim·Yamanouchi K.K. 161454·122416
In short: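 Substrate: L-α-dipalmitoylphosphatidylcholine/sodium cholate mixed micelles in 250 mM NaCl, 100 mM Tris-HCl pH 8.0. Enzyme (10 µg/ml stock) incubated with compound in buffer containing CaCl2 and BSA, 30 min at 37 °C. Released free fatty acid measured by ACS-ACOD at 540 nm; % inhibition derived from apparent enzyme concentration read off a standard curve.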

[2] = system: increased vascular permeability induced by acetic acid; experiment: Inhibitory activity on increased vascular permeability induced by acetic acid (Mouse Whittle method, method C); type: in vivo, ddy male mice; settings: amount of leaked dye
In short: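 ddy male mice (4-5 per group) dosed orally with compound in 2% Tween 80 suspension or aqueous salt solution. Dye measured at 600 nm; inhibition % calculated versus vehicle control leakage.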

carrageenin edema = experiment: Inhibitory activity on carrageenin edema; type: in vivo, Wistar male rats; settings: rat, paw swelling volume three hours after carrageenin; for inhibition in vivo at 100 mg/kg: po, 3 h, dose 100 mg/kg orally, read-out: Inhibition rate (%); for Inhibition rate (%): dose 50 mg/kg orally
In short: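 Male Wistar rats (about 100 g, 5 per group) dosed orally at 200, 100, 50 or 25 mg/kg as 2% Tween 80 suspension or aqueous salt solution, 1 h before subplantar injection of 0.1 ml 1% λ-carrageenin. Paw swelling measured at 3 h; % inhibition versus control group mean swelling.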

[3] = system: increased vascular permeability induced by acetic acid; experiment: Inhibitory activity on increased vascular permeability induced by acetic acid (Rat Whittle method, method D); type: in vivo, SD (Crj: CD) male rats; settings: amount of leaked dye
Protocol: Using SD (Crj: CD) male rats, each test group consisted of from 3 to 5 rats. A test compound was mixed with Tween 80 [polyoxyethylenesorbitan monooleate (manufactured by Nacalai Tesque K.K.)], and distilled water was added thereto to obtain a 2% Tween 80 suspension, or it was dissolved in the form of a salt in water to obtain an aqueous solution. A test compound was orally administered, and one hour later, 0.7% acetic acid was intraperitonially injected to each rat in an amount of 0.05 ml/10 g, and at the same time, 2% brilliant blue was intravenously injected into the tail vein in an amount of 0.05 ml/20 g. Thirty minutes after the injection of brilliant blue, the cervical vertebrae were dislocated under anesthesia by chloroform, and the abdorminal cavity was washed with 10 ml of a physiological saline. The washing solution was subjected to centrifugal separation at 3,000 rpm for 10 minutes, and the amount of the dye in the supernatant was measured at 600 nm absorbance by Microplate ELISA Reader (Model 2550EIA Reader, manufactured by Bio-Rad Laboratories). The inhibition rate of the amount of leaked dye in the group to which a test compound was administered relative to the control group was obtained from the following formula, and the results are shown in Table 9. Inhibition rate (%) = (l -(C)/(D)) x 100 [formula] • C: Amount of leaked dye in the group to which a test compound was administered. • D: Amount of leaked dye in the control group.

T1 sequence (P00592 23-146): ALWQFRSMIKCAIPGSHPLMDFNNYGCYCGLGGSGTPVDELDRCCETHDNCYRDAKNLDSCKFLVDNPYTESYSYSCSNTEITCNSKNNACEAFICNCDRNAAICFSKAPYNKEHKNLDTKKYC

Row | Structure (SMILES) | inhibition at 1000 ppm [1] [%] | Inhibition rate (%) ([2]; dose 10 mg/kg orally) | Inhibition rate (%) ([2]; dose 20 mg/kg orally) | Inhibition rate (%) (carrageenin edema) | other results
1 | CS(=O)(=O)Nc1ncc(C(F)(F)F)cc1NC(=O)c1ccc(F)cc1 [Compound No. 10, N-(2-methylsulfonylamino-5-trifluoromethyl-3-pyridyl)-4-fluorobenzamide] | 51 | 42 | – | – | inhibition in vivo at 100 mg/kg (carrageenin edema): 28%
2 | CCS(=O)(=O)Nc1ncc(C(F)(F)F)cc1NC(=O)C1CCCCC1 [Compound No. 47, N-(2-ethylsulfonylamino-5-trifluoromethyl-3-pyridyl)cyclohexanecarboxamide] | 90 | 46 | – | – | Inhibition rate (%) (carrageenin edema; 50 mg/kg): 41%
3 | CCS(=O)(=O)Nc1ncc(C(F)(F)F)cc1NC(=O)C1CCCCC1 [Compound No. 251, sodium salt of N-(2-ethylsulfonylamino-5-trifluoromethyl-3-pyridyl)cyclohexanecarboxamide] | – | – | – | – | % inhibition of PLA2 (1,000 ppm) [1]: 85%; Inhibition rate (%) ([2]; dose 20 mg/kg orally, 20 mg/kg): 43%; Inhibition rate (%) ([3]; dose 12.5 mg/kg orally): 46%; Inhibition rate (%) (carrageenin edema; 50 mg/kg): 30%
4 | CS(=O)(=O)Nc1ncc(C(F)(F)F)cc1NC(=O)C(F)(F)C(F)(F)F [compound 13] | 51 | – | – | – | Inhibition rate (%) ([2]; dose 100 mg/kg orally): 57%; inhibition in vivo at 100 mg/kg (carrageenin edema): 21%
5 | CS(=O)(=O)Nc1ncc(C(F)(F)F)cc1NC(=O)c1ccccc1 [compound 43] | 49 | – | 48 | 31 | –
6 | CS(=O)(=O)Nc1ncc(C(F)(F)F)cc1NC(=O)C1CCCC1 [compound 45] | 41 | – | 29 | 23 | –
7 | Cc1cccc(C(=O)Nc2cc(C(F)(F)F)cnc2NS(C)(=O)=O)c1 [compound 78] | 51 | 32 | – | 26 | Inhibition rate (%) ([3]; dose 25 mg/kg orally): 40%
8 | CS(=O)(=O)Nc1ncc(C(F)(F)F)cc1NC(=O)c1cccc(Cl)c1 [compound 79] | 65 | – | 67 | 20 | Inhibition rate (%) ([3]; dose 50 mg/kg orally): 74%
9 | CS(=O)(=O)Nc1ncc(C(F)(F)F)cc1NC(=O)c1cc2ccccc2s1 [compound 86] | 93 | – | 42 | 27 | Inhibition rate (%) ([3]; dose 50 mg/kg orally): 37%
10 | CS(=O)(=O)Nc1ncc(C(F)(F)F)cc1NC(=O)c1ccc2c(c1)CCC2 [compound 87] | 88 | 28 | – | 21 | Inhibition rate (%) ([3]; dose 12.5 mg/kg orally): 47%
11 | C/C=C/C(=O)Nc1cc(C(F)(F)F)cnc1NS(=O)(=O)CC [compound 93, N-(2-ethylsulfonylamino-5-trifluoromethyl-3-pyridyl)crotonamide] | 48 | 40 | – | 22 | Inhibition rate (%) ([3]; dose 25 mg/kg orally): 54%
12 | CCS(=O)(=O)Nc1ncc(C(F)(F)F)cc1NC(=O)C1CCCC1 [compound 94] | 63 | – | 53 | 23 | Inhibition rate (%) ([3]; dose 25 mg/kg orally): 45%
